# Test results as given in patent publication US20230120211A1, “HDAC Degrader” (University of Leicester, priority 2020, published 2023).
# How the values were obtained:
# [1] = target: LSD1-CoREST-HDAC1 complex (Homo sapiens, UniProt Q13547); assay: fluorescent deacetylase assay with the LSD1-CoREST-HDAC1 complex (Example 2, FIG. 3A); assay type: biochemical
# Experimental: The inventors evaluated their preliminary PROTACs in vitro using an established fluorescent deacetylase assay with the LSD1-CoREST-HDAC1 complex. This complex was used as an exemplary HDAC multiprotein complex to determine if such heterobifunctional molecules PROTACs 1-4 can still engage the HDAC enzyme in the context of an intact multiprotein complex.
# (§1) Inhibition tests against LSD1-HDAC-CoREST complex were performed using a two-enzyme fluorescence-based HDAC assay. The inhibitor/PROTACs were dissolved at 50 mM in DMSO, then 1:2 serial dilutions performed using HDAC assay buffer (50 mM Tris pH 7.5, 150 mM NaCl) to afford range of concentrations.
# (§2) The assays were performed in black 96-well plates with a reaction volume of 50 μL per well. All determinations were performed in triplicate. […] After an incubation of 20 minutes at 37° C. and 150 rpm, deacetylation was stopped by the addition of 50 μL of a developing solution containing trypsin (50 mM Tris pH 7.5, 100 mM NaCl, 10 mg/mL trypsin). […] HDAC Activity was calculated by subtracting the average blank fluorescence from the well fluorescence. Graphpad Prism software was utilised to determine IC50 values.
# HDAC2 [2] = target: T1, HDAC2 (Homo sapiens, UniProt Q92769); assay: HDAC2 degradation in HCT116 cells, quantitative western blot; assay type: cell-based; settings: HCT116, 24 h, 10 nM
# T1 construct: endogenous in cells; host or cells: HCT116
# [3] = tested on: HCT116 colon cancer cell line; assay: Cell cycle / cell death by FACS in HCT116 colon cancer cell line; assay type: cell-based, human; settings: HCT116, 48 hours, 10 μM
# Experimental: The inventors then investigated the effect of PROTAC 4 on the cell cycle in the colon cancer HCT116 cell line.
# […] Cells were washed in PBS prior to incubation with […] of propidium iodide and RNase A (10 μg/mL) for 30 min at room temperature in the dark. Samples were analysed using the BD FACSCanto II flow cytometer (BD Biosciences) in the PE A channel with BD FACSDiva software.
# HDAC2 [4] = target: T1, HDAC2; assay: HDAC2 degradation in HCT116 cells, quantitative western blot; assay type: cell-based; settings: for Dmax: HCT-116, 24 h, read-out: HDAC 2 Degrader (% Degradation)
# Experimental: (§3) The compounds were screened at 0.1 μM, 1 μM and 10 μM in a HCT116 cell line. The maximum degradation observed irrespective of the concertation was recorded. The screening of the new compounds was done in 6-well plates, 5 mL media, with 400,000 cells per well to increase throughput.
# (§4) HCT116 or mES cells were treated 24 hours after seeding. 24 hours post treatment, cells were harvested, lysed in lysis buffer (50 mM Tris-HCl, 150 mM NaCl, 0.5% NP-40, 0.5% Triton X-100) with protease inhibitor (Sigma, P8340), then incubated on ice for 30 minutes, before being centrifuged (18,000 ref, 15 minutes, 4° C.). The supernatant was collected, and protein concentrations quantified via Bradford Assay using Protein Assay Dye Reagent Concentrate (BIO-RAD). For histone extraction, an equal volume of 0.4 N H2SO4 was added to the pellets and the extracts placed at 4° C. overnight. Following overnight incubation, the tubes were centrifuged (18,000 ref, 15 minutes, 4° C.) and then the supernatant (histone extract) collected.
# (§5) PageRuler™ Plus Prestained Ladder was used for size standards. After gel electrophoresis at 140V for 75-90 minutes the separated proteins were transferred onto nitrocellulose membrane at 30V for 60 minutes. The membranes were probed with primary antibodies (listed below) for 60-90 minutes. Blots were developed with complimentary IRDye conjugated secondary antibodies and the bands visualised using the Odyssey Infrared Imaging System. Image processing and band intensity quantification was performed using Image Studio Lite.
# NuRD = NuRD (Homo sapiens, UniProt Q13547); assay: HDAC inhibition assay, NuRD complex (Table 1); assay type: biochemical
# SMRT = SMRT (Homo sapiens, UniProt O15379); assay: HDAC inhibition assay, SMRT complex (Table 1); assay type: biochemical
# H3K9ac = assay: Histone H3 Lys9 acetylation levels in HCT116 cells; assay type: cell-based, human; settings: HCT116, 24 h, 10 μM
# Experimental: Acetylation levels of Histone H3 Lys9 (H3K9ac), another established residue for HDAC activity, were also determined in HCT116 cells after 24 hours treatment with PROTAC 4.
# as §4
# Western blots were run on NuPAGE™ 4-12% Bis-Tris gels with 20-30 μg of protein or 10 μL of acid-extracted histone loaded per lane, using NuPAGE™ LDS Sample Buffer (4×). PageRuler™ Plus Prestained Ladder was used for size standards. After gel electrophoresis at 140V for 75-90 minutes the separated proteins were transferred onto nitrocellulose membrane at 30V for 60 minutes. […] Image processing and band intensity quantification was performed using Image Studio Lite.
# H3K56ac [5] = assay: H3K56ac levels in E14 mouse embryonic stem cells, quantitative western blot; assay type: cell-based; settings: E14 mES cells, 24 h; CI-994 40 μM, Panobinostat 30 nM
# Experimental: The inventors proceeded to assess their compounds effects on HDAC activity in cells.
# To examine the ability of PROTACs 1-4 to reduce HDAC1, 2 and 3 activity in cells they began by measuring H3K56ac using quantitative western blotting (see FIG. 3B).
# as §4
# (§6) Western blots were run on NuPAGE™ 4-12% Bis-Tris gels with 20-30 μg of protein or 10 μL of acid-extracted histone loaded per lane, using NuPAGE™ LDS Sample Buffer (4×). PageRuler™ Plus Prestained Ladder was used for size standards. After gel electrophoresis at 140V for 75-90 minutes the separated proteins were transferred onto nitrocellulose membrane at 30V for 60 minutes. The membranes were probed with primary antibodies (listed below) for 60-90 minutes. Blots were developed with complimentary IRDye conjugated secondary antibodies and the bands visualised using the Odyssey Infrared Imaging System. Image processing and band intensity quantification was performed using Image Studio Lite.
# CoREST = CoREST (Homo sapiens, UniProt Q13547); assay: HDAC inhibition assay, CoREST complex (Table 1, run under different conditions); assay type: biochemical; settings: Table 1 conditions (differ from FIG. 3)
# Experimental: as §1, §2
# MiDAC = MiDAC (Homo sapiens, UniProt Q13547); assay: HDAC inhibition assay, MiDAC complex (Table 1); assay type: biochemical
# HDAC1 [6] = target: T2, HDAC1 (Homo sapiens, UniProt Q13547); assay: HDAC1 degradation in HCT116 cells, quantitative western blot; assay type: cell-based; settings: for Dmax: HCT-116, 24 h, read-out: HDAC1 Degrader (% Degradation)
# T2 construct: endogenous in cells; host or cells: HCT116
# Experimental: as §3, §4, §5
# HDAC1 [7] = target: T2, HDAC1; assay: as above; assay type: cell-based; settings: HCT116, 24 h, 10 nM
# HDAC3 = target: T3, HDAC3 (Homo sapiens, UniProt O15379); assay: HDAC3 degradation in HCT116 cells, quantitative western blot; assay type: cell-based; settings: for Dmax: HCT-116, 24 h, HCT116, screened at 0.1, 1 and 10 μM, maximum degradation irrespective of concentration, read-out: HDAC 3 degrader (% Degradation)
# T3 construct: endogenous in cells; host or cells: HCT116
# Experimental: as §3, §4, §5
# H3K56Ac [8] = assay: Increase of H3K56Ac (Table 1 screen); assay type: cell-based, human; settings: HCT116 screen; cell line not restated at the table
# Experimental: as §3, §4, §6
# [9] = HCT116, 24 h, 1 μM, remaining level
# [10] = HCT116, screened at 0.1, 1 and 10 μM, maximum degradation irrespective of concentration
# Chain of SMRT (O15379 whole entry): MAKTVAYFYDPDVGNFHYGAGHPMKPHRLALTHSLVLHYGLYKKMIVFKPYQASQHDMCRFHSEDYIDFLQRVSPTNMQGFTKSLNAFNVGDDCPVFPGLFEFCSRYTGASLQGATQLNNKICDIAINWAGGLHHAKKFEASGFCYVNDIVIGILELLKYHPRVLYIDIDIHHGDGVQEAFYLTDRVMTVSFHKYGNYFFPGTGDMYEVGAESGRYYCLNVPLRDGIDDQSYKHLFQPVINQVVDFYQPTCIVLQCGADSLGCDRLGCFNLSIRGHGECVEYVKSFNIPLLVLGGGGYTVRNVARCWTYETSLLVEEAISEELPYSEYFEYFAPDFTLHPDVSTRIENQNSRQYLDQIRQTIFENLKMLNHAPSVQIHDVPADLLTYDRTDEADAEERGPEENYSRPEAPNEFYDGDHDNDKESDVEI
# Chain of SMRT (Q9Y618 389-480 partner limits assumed): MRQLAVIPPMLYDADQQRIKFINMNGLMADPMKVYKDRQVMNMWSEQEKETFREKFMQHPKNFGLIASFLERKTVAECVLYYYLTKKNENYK
# T3 sequence (O15379 whole entry): as the sequence (O15379 whole entry) above
# T1 sequence (Q92769 whole entry): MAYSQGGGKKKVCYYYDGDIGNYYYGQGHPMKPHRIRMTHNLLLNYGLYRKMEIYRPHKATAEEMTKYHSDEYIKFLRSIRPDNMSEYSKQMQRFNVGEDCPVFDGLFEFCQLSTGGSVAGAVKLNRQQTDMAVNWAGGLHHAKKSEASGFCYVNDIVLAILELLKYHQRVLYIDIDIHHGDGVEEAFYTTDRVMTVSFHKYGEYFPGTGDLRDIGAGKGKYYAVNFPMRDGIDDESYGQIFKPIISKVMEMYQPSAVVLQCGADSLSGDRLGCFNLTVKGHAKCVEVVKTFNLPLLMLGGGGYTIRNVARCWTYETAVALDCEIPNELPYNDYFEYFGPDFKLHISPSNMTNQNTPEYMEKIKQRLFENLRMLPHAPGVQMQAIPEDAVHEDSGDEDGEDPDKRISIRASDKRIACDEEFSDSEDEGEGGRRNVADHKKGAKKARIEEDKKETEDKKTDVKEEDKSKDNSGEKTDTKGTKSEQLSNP
# T2 sequence (Q13547 whole entry): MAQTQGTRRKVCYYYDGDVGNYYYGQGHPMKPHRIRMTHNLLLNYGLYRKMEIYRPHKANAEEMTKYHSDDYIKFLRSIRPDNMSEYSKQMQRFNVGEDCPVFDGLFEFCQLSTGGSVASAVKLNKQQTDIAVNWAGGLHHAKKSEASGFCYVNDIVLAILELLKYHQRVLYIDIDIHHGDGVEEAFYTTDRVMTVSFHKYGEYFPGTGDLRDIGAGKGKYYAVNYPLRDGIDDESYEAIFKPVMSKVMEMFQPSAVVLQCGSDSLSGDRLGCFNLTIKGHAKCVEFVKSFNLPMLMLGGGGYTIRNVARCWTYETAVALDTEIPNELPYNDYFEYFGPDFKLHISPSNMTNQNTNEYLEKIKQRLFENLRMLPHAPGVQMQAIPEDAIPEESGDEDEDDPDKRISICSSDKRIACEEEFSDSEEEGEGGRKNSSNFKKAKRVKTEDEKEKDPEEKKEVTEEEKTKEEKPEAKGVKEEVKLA
# Chain of CoREST (Q13547 whole entry, other chains not shown): as the sequence (Q13547 whole entry) above
# Chain of CoREST (Q9UKL0 86-485 partner limits assumed, other chains not shown): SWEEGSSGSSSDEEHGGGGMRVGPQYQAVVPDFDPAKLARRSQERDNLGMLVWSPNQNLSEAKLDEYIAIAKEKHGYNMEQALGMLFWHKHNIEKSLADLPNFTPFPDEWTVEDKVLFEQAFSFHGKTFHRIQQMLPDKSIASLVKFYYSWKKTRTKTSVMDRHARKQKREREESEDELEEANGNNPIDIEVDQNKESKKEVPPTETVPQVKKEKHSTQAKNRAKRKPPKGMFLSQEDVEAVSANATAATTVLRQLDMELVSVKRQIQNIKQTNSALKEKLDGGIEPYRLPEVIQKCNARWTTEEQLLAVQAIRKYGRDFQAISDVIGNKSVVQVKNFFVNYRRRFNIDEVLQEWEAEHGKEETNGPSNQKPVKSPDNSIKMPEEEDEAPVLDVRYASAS
# Chain of NuRD (Q13547 whole entry): as the sequence (Q13547 whole entry) above
# Chain of NuRD (Q13330 162-546 partner limits assumed): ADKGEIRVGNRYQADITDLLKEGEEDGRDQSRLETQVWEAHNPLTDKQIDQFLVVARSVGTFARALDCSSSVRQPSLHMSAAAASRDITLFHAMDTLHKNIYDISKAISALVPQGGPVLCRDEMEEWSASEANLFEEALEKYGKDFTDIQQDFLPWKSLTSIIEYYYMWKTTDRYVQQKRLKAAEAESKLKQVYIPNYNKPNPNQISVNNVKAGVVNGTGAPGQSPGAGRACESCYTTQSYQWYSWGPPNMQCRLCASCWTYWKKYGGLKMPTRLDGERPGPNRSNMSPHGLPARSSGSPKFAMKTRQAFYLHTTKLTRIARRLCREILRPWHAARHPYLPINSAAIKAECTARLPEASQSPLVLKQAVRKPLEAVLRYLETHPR
# Chain of NuRD (Q09028 whole entry partner): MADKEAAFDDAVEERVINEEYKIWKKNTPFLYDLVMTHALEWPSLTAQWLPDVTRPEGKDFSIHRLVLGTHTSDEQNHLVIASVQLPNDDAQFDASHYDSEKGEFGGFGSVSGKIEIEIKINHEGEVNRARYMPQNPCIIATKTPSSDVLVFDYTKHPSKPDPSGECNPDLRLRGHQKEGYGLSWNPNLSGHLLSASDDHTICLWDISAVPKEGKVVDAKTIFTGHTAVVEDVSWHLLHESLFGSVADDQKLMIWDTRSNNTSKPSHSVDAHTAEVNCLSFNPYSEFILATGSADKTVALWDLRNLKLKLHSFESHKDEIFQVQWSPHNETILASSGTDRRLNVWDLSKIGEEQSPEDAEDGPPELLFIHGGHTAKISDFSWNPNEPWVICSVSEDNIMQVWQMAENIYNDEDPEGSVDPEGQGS
# Chain of LSD1-CoREST-HDAC1 complex (Q13547 whole entry, other chains not shown): as the sequence (Q13547 whole entry) above
# Chain of LSD1-CoREST-HDAC1 complex (Q9UKL0 86-485 partner limits assumed, other chains not shown): as the sequence (Q9UKL0 86-485 partner limits assumed, other chains not shown) above
# Chain of MiDAC (Q13547 whole entry): as the sequence (Q13547 whole entry) above
# Chain of MiDAC (Q6PJG2 628-887 partner limits assumed): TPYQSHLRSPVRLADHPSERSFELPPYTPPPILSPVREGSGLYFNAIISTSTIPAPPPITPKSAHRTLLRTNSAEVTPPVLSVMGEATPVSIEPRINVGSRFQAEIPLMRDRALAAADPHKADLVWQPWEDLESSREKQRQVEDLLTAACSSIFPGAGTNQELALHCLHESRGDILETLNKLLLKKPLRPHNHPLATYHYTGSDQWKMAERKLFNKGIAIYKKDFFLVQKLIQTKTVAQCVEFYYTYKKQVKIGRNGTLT
# Chain of MiDAC (Q9H147 whole entry partner): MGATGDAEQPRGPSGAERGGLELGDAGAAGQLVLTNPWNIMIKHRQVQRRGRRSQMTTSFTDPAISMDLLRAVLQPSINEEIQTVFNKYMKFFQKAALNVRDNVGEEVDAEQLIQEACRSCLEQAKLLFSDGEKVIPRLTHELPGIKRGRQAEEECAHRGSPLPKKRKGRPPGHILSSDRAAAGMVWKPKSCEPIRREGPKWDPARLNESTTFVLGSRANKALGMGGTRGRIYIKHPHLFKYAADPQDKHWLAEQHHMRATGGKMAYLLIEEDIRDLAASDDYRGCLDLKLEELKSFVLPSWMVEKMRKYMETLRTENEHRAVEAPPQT
Compound,Dmax (HDAC2 [4]; [10]),IC50 (NuRD),IC50 (SMRT),IC50 (CoREST),IC50 (MiDAC),Dmax (HDAC1 [6]; [10]),Dmax (HDAC3),Increase H3K56Ac (Y/N/partial) (H3K56Ac [8]),also measured
"CC(=O)Nc1ccc(C(=O)Nc2ccccc2NC(=O)OC(C)(C)C)cc1 [Compound 5, Tert-butyl (2-(4-acetamidobenzamido)phenyl)carbamate, reference compound]",,,,,,,,,HDAC inhibition ([1]; LSD1-CoREST-HDAC1 complex): no HDAC inhibition
"Cc1ncsc1-c1ccc(CNC(=O)[C@@H]2C[C@@H](O)CN2C(=O)[C@@H](NC(=O)COCCCCCCCCCOCC(=O)Nc2ccc(C(=O)Nc3ccc(F)cc3N)cc2)C(C)(C)C)cc1 [PROTAC20, (2S,4R)-1-((S)-2-(2-((9-(2-((4-((2-amino-4-fluorophenyl)carbamoyl)phenyl)amino)-2-oxoethoxy)nonyl)oxy)acetamido)-3,3-dimethylbutanoyl)-4-hydroxy-N-(4-(4-methylthiazol-5-yl)benzyl)pyrrolidine-2-carboxamide]",26%,,,,,51%,67%,partial,
"CN[C@@H](C)C(=O)N[C@H](C(=O)N1C[C@@H](NC(=O)COCCOCCOCC(=O)Nc2ccc(C(=O)Nc3ccccc3N)cc2)C[C@H]1C(=O)N[C@@H]1CCCc2ccccc21)C1CCCCC1 [PROTAC28, (2S,4S)-4-(2-(2-(2-(2-((4-((2-aminophenyl)carbamoyl)phenyl)amino)-2-oxoethoxy)ethoxy)ethoxy)acetamido)-1-((S)-2-cyclohexyl-2-((S)-2-(methylamino)propanamido)acetyl)-N-((R)-1,2,3,4-tetrahydronaphthalen-1-yl)pyrrolidine-2-carboxamide]",,,,,,,57%,partial,HDAC 2 Degrader (% Degradation) (HDAC2 [4]; [10]): No; HDAC1 Degrader (% Degradation) (HDAC1 [6]; [10]): No

# Second part, led by results:
Dmax (HDAC2 [4]; [10]),IC50 (NuRD),IC50 (SMRT),IC50 (CoREST),IC50 (MiDAC),Dmax (HDAC1 [6]; [10]),Dmax (HDAC3),Compound,Increase H3K56Ac (Y/N/partial) (H3K56Ac [8]),also measured
76%,418 nM,414 nM,394 nM,336 nM,85%,63%,"Cc1ncsc1-c1ccc(CNC(=O)[C@@H]2C[C@@H](O)CN2C(=O)[C@@H](NC(=O)CCCCCCCCCCC(=O)Nc2ccc(C(=O)Nc3ccccc3N)cc2)C(C)(C)C)cc1 [PROTAC4, N1-(4-((2-aminophenyl)carbamoyl)phenyl)-N12-((S)-1-((2S,4R)-4-hydroxy-2-((4-(4-methylthiazol-5-yl)benzyl)carbamoyl)pyrrolidin-1-yl)-3,3-dimethyl-1-oxobutan-2-yl)dodecanediamide]",,"HDAC2 levels (HDAC2 [2]): not recovered; cell death [3]: significant cell death; HDAC2 degradation (HDAC2 [4]; HCT116, 24 h, 1 μM): approximately 50%; HDAC2 level (DMSO control = 100%) (HDAC2 [4]; [9]): 40-48%; HDAC2 degradation (HDAC2 [4]; HCT116, 24 h, 10 μM): near complete degradation; IC50 ([1]; LSD1-CoREST-HDAC1 complex in vitro): 16.8 µM; H3K9 acetylation levels compared to DMSO control (H3K9ac): highly elevated; H3K56 acetylation level (H3K56ac [5]): increase in acetylation to similar levels; HDAC1 degradation (HDAC1 [6]; HCT116, 24 h, 1 μM): approximately 50%; HDAC1 level (DMSO control = 100%) (HDAC1 [6]; [9]): 40-48%; HDAC1 degradation (HDAC1 [6]; HCT116, 24 h, 10 μM): near complete degradation; HDAC1 levels (HDAC1 [7]): not recovered; HDAC3 degradation (HDAC3; HCT116, 24 h, 1 μM): approximately 50%; HDAC3 level (DMSO control = 100%) (HDAC3; [9]): 40-48%; HDAC3 levels (HDAC3; HCT116, 24 h, 10 μM): decreased"
52%,1180 nM,345 nM,845 nM,1430 nM,58%,69%,"Cc1ncsc1-c1ccc(CNC(=O)[C@@H]2C[C@@H](O)CN2C(=O)[C@@H](NC(=O)COCCCCCCCCC(=O)Nc2ccc(C(=O)Nc3ccccc3N)cc2)C(C)(C)C)cc1 [PROTAC13, (2S,4R)-1-((S)-2-(2-((9-((4-((2-aminophenyl)carbamoyl)phenyl)amino)-9-oxononyl)oxy)acetamido)-3,3-dimethylbutanoyl)-4-hydroxy-N-(4-(4-methylthiazol-5-yl)benzyl)pyrrolidine-2-carboxamide]",,
21%,,860 nM,3810 nM,,58%,46%,"Cc1ncsc1-c1ccc(CNC(=O)[C@@H]2C[C@@H](O)CN2C(=O)[C@@H](NC(=O)CCCCCCCCCCC(=O)Nc2ccc(C(=O)Nc3ccc(F)cc3N)cc2)C(C)(C)C)cc1 [PROTAC17, N1-(4-((2-amino-4-fluorophenyl)carbamoyl)phenyl)-N12-((S)-1-((2S,4R)-4-hydroxy-2-((4-(4-methylthiazol-5-yl)benzyl)carbamoyl)pyrrolidin-1-yl)-3,3-dimethyl-1-oxobutan-2-yl)dodecanediamide]",partial,
